Reference: US6713468B2, “Methods of using thiazolobenzoheterocycles” (Aventis Pharma S.A., priority 1997, dated 2004)

Row | SMILES | melting point [°C]
1 | N=c1sc2cc(OC(F)(F)F)cc3c2n1CCC3=O [Example 8, 2-imino-8-trifluoromethoxy-2H,4H-thiazolo-[5,4,3-ij]quinolin-6-one] | 192
2 | N=c1sc2cc(OC(F)(F)F)cc3c2n1CC(=O)N3 [Example 37, 2-imino-8-trifluoromethoxy-2H,4H-thiazolo[3,4,5-de]quinoxalin-5(6H)-one] | 255
